# pIC50: −log10 of the molar value.
# What was measured:
# [1] = test system: U2OS; experiment: Cytotoxicity against human U2OS cells assessed as reduction in cell viability incubated for 72 hrs by MTS assay; assay type: functional, cell-based
# [2] = test system: A549; experiment: Cytotoxicity against human A549 cells assessed as reduction in cell viability incubated for 72 hrs by MTS assay; assay type: functional, cell-based; conditions: A549, 72 h
# [3] = Cytotoxicity against human BJ cells assessed as reduction in cell viability incubated for 72 hrs by MTS assay; assay type: toxicity, cell-based
# [4] = test system: CCRF-CEM; experiment: Cytotoxicity against human CCRF-CEM cells assessed as reduction in cell viability incubated for 72 hrs by MTS assay; assay type: functional, cell-based
# [5] = test system: HCT-116; experiment: Cytotoxicity against human HCT-116 cells assessed as reduction in cell viability incubated for 72 hrs by MTS assay; assay type: functional, cell-based; conditions: HCT-116, 72 h
# [6] = Cytotoxicity against human K562-Tax cells assessed as reduction in cell viability incubated for 72 hrs by MTS assay; assay type: functional, cell-based
# [7] = test system: K562; experiment: Cytotoxicity against human K562 cells assessed as reduction in cell viability incubated for 72 hrs by MTS assay; assay type: functional, cell-based; conditions: K562, 72 h
# [8] = Cytotoxicity against human MRC5 cells assessed as reduction in cell viability incubated for 72 hrs by MTS assay; assay type: toxicity, cell-based
# [9] = test system: CEM-DNR; experiment: Cytotoxicity against human CEM-DNR cells assessed as reduction in cell viability incubated for 72 hrs by MTS assay; assay type: functional, cell-based
# [10] = Cytotoxicity against human HCT116-p53-null cells assessed as reduction in cell viability incubated for 72 hrs by MTS assay; assay type: functional, cell-based
SMILES,pIC50 [1],pIC50 [2],IC50 at 72 h [3],pIC50 [4],pIC50 [5],pIC50 [6],pIC50 [7],IC50 at 72 h [8],pIC50 [9],pIC50 [10]
CC1(C)CC[C@]23CC[C@]4(C)[C@H](CC[C@@H]5[C@@]6(C)CCC(=O)C(C)(C)[C@@H]6CC[C@]54C)[C@H]2[C@H]1OC3,< 4.30,< 4.30,> 50 µM,< 4.30,< 4.30,< 4.30,< 4.30,> 50 µM,< 4.30,< 4.30
CC1(C)CC[C@]2(C(=O)O)CC[C@]3(C)C(=CC[C@@H]4[C@@]5(C)Cc6cccnc6C(C)(C)[C@@H]5CC[C@]43C)[C@@H]2C1,< 4.30,< 4.30,> 50 µM,4.41,< 4.30,< 4.30,4.89,> 50 µM,< 4.30,< 4.30
Cc1oc(=O)oc1COC(=O)[C@]12CC[C@@H](C(C)C)[C@@H]1[C@H]1CC[C@@H]3[C@@]4(C)Cc5nccnc5C(C)(C)[C@@H]4CC[C@@]3(C)[C@]1(C)CC2,4.40,4.39,> 50 µM,4.77,< 4.30,4.92,7.59,> 50 µM,4.30,4.36
CC1(C)C=C2[C@H]3CC[C@@H]4[C@@]5(C)CCC(=O)C(C)(C)[C@@H]5CC[C@@]4(C)[C@]3(C)CC[C@@]2(C(=O)O)CC1 [MORONIC ACID],< 4.30,4.33,> 50 µM,4.77,4.35,4.68,< 4.30,> 50 µM,4.77,< 4.30
CC1(C)CC[C@]23CC[C@]4(C)[C@H](CC[C@@H]5[C@@]6(C)Cc7nccnc7C(C)(C)[C@@H]6CC[C@]54C)[C@H]2[C@H]1OC3,< 4.30,< 4.30,> 50 µM,< 4.30,< 4.30,< 4.30,< 4.30,> 50 µM,< 4.30,< 4.30
CC(C)[C@@H]1CC[C@]2(C(=O)O)CC[C@]3(C)[C@H](CC[C@@H]4[C@@]5(C)CCC(=O)C(C)(C)[C@@H]5CC[C@]43C)[C@@H]12 [DIHYDROBETULONIC ACID],4.57,,> 50 µM,5.20,,4.96,,> 50 µM,4.32,4.44
CC1(C)C=C2[C@H]3CC[C@@H]4[C@@]5(C)Cc6cccnc6C(C)(C)[C@@H]5CC[C@@]4(C)[C@]3(C)CC[C@@]2(C(=O)O)CC1,< 4.30,< 4.30,> 50 µM,5.10,4.33,4.82,< 4.30,> 50 µM,4.85,< 4.30
C[C@H]1[C@H](C)CC[C@]2(C(=O)O)CC[C@]3(C)C(=CC[C@@H]4[C@@]5(C)Cc6nccnc6C(C)(C)[C@]5(C)CC[C@]43C)[C@H]12,< 4.30,< 4.30,> 50 µM,4.72,4.30,4.36,< 4.30,> 50 µM,4.77,< 4.30
CC1(C)CC[C@]2(C(=O)O)CC[C@]3(C)C(=CC[C@@H]4[C@@]5(C)CCC(=O)C(C)(C)[C@@H]5CC[C@]43C)[C@@H]2C1 [OLEANONIC ACID],,,> 50 µM,5.02,,4.68,< 4.30,> 50 µM,4.77,< 4.30
C#CCOC(=O)[C@]12CC[C@@H](C(=C)C=O)[C@@H]1[C@H]1CC[C@@H]3[C@@]4(C)CC[C@H](O)C(C)(C)[C@@H]4CC[C@@]3(C)[C@]1(C)CC2,5.80,5.89,7.1 µM,6.06,5.77,5.89,5.74,1.7 µM,5.85,5.82
CC1(C)C=C2[C@H]3CC[C@@H]4[C@@]5(C)Cc6nccnc6C(C)(C)[C@@H]5CC[C@@]4(C)[C@]3(C)CC[C@@]2(C(=O)O)CC1,< 4.30,< 4.30,> 50 µM,4.82,4.40,4.60,< 4.30,> 50 µM,4.54,< 4.30

# From ChEMBL document CHEMBL5352436, “Triterpenoid pyrazines and pyridines - Synthesis, cytotoxicity, mechanism of action, preparation of prodrugs” (Eur J Med Chem, 2022)
